From article PMC10796436, “Peptidyl nitroalkene inhibitors of main protease rationalized by computational and crystallographic investigations as antivirals against SARS-CoV-2” (Communications Chemistry, 2024)
Where “and” joins values, the source holds several entries; their conditions need not be identical. Equal entries are not always repeated.

How the values were obtained:
SARS-CoV-2 M^pro [1] = biological target: T1, SARS-CoV-2 M^pro (Severe acute respiratory syndrome coronavirus 2, UniProt P0DTD1); assay: biochemical; conditions: M^pro from pMal-M^pro vector
SARS-CoV-2 M^pro [2] = biological target: T1, SARS-CoV-2 M^pro; assay: Mpro FRET inhibition, continuous fluorometric assay (Fluorolog-3), enzyme from pET21-M^pro vector; format: biochemical; conditions: read-out: Ki (μM)^b
SARS-CoV-2 = assay: microbe, parasite or virus in culture; format: cell-based; conditions: for virus titer Mean (%): mean of Exp.1-3; for virus titer (%) of conc 0 / virus titer (pfu/ml): single experiments
[3] = biological target: human matriptase (MT-SP1) (Homo sapiens, UniProt Q9Y5Y6); assay: Matriptase inhibition, fluorometric assay; format: biochemical; conditions: 20 μM
Sequence of human matriptase (MT-SP1) (Q9Y5Y6 615-855 limits assumed, other chains not shown): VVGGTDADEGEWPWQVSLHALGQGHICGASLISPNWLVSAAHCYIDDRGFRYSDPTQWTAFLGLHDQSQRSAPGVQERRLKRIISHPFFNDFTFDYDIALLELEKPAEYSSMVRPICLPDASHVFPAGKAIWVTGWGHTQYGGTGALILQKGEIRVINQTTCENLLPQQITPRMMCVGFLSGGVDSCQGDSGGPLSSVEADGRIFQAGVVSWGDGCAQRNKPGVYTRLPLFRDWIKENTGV

[4] = biological target: Zika Virus NS2B/NS3 (bZiPro) (Zika virus, UniProt A0A024B7W1); assay: Zika virus protease inhibition, fluorometric assay; format: biochemical; conditions: 20 μM
Sequence of Zika Virus NS2B/NS3 (bZiPro) (A0A024B7W1 1425-1464): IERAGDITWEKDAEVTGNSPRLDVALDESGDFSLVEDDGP
Sequence of Zika Virus NS2B/NS3 (bZiPro) (A0A024B7W1 1503-1680): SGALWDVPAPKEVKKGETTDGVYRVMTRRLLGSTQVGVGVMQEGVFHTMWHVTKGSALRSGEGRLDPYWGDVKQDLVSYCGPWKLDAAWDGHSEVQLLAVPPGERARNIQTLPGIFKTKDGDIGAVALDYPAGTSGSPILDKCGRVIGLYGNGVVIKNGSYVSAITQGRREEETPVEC

cathepsin L (CatL) = biological target: T2, cathepsin L (CatL) (Homo sapiens, UniProt P07711); assay: Cathepsin L inhibition, fluorometric assay; format: biochemical
T2 construct: purchased Calbiochem (Merck Millipore)
T2 sequence (P07711 114-288 limits assumed): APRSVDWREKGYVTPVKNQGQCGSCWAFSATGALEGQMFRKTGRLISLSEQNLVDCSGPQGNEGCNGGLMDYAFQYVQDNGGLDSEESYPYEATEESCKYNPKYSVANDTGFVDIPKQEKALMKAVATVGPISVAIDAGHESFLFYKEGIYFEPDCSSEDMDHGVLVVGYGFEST
T2 sequence (P07711 292-333 limits assumed): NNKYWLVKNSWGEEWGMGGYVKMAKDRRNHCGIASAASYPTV

M^pro = M^pro (Severe acute respiratory syndrome coronavirus 2, UniProt P0DTD1); assay: biochemical; format: binding

CC(C)C[C@H](NC(=O)OCc1ccccc1)C(=O)N[C@H](/C=C/[N+](=O)[O-])C[C@@H]1CCNC1=O [FGA147]
Ki (SARS-CoV-2 M^pro [1]): 2.18 ± 0.19 µM | Ki (SARS-CoV-2 M^pro [2]): 1.33 ± 0.05 µM | EC50 (SARS-CoV-2; Severe acute respiratory syndrome coronavirus 2, 24 h, Huh-7-ACE2, 24h p.t., MOI=0.1): 1900 nM | virus titer Mean (%) (SARS-CoV-2; conc 0.1): 153.333% | virus titer (%) of conc 0 (SARS-CoV-2; conc 0.1): 160% and 180% and 120% | virus titer (pfu/ml) (SARS-CoV-2; conc 0.1): 1600000 pfu/ml and 1800000 pfu/ml and 2400000 pfu/ml | virus titer Mean (%) (SARS-CoV-2; conc 0.5): 83.3333% | virus titer (pfu/ml) (SARS-CoV-2; conc 0.5): 1000000 pfu/ml and 1200000 pfu/ml and 600000 pfu/ml | virus titer Mean (%) (SARS-CoV-2; conc 1): 85% | virus titer Mean (%) (SARS-CoV-2; conc 5): 0.5017% | virus titer (%) of conc 0 (SARS-CoV-2; conc 5): 1% and 0.365% and 0.14% | virus titer Mean (%) (SARS-CoV-2; conc 10): 0.08% | virus titer (%) of conc 0 (SARS-CoV-2; conc 10): 0.04% and 0.15% and 0.05% | virus titer Mean (%) (SARS-CoV-2; conc 50): 0.025% | virus titer (%) of conc 0 (SARS-CoV-2; conc 50): 0.06% and 0.012% and 0.003% | virus titer Mean (%) (SARS-CoV-2; conc 100): 0.01767% | virus titer (%) of conc 0 (SARS-CoV-2; conc 100): 0.02% and 0.026% and 0.007% | virus titer (pfu/ml) (SARS-CoV-2; conc 100): 200 pfu/ml and 260 pfu/ml and 140 pfu/ml | MT-SP1 [3]: n.i. (no inhibition (<10%) was observed at a concentration of 20 μM) | bZiPro [4]: n.i. (no inhibition (<10%) was observed at a concentration of 20 μM) | Ki (cathepsin L (CatL)): 1990 ± 107 nM | Tm of M^pro (M^pro; 25 µM): 46.2 ± 0.1 °C | change of Tm of M^pro (M^pro; 25 µM): −3.0 ± 0.1 °C | ΔTm at 25 µM (M^pro; 25 µM, read-out: DTm (°C)): -3 °C | Tm of M^pro (M^pro; 100 μM): 45.0 ± 0.2 °C | change of Tm of M^pro (M^pro; 100 μM): −4.2 ± 0.2 °C | Fraction unfolded (M^pro; 25 mM, 21.5 °C): 0.04278 | Fraction unfolded (M^pro; 25 mM, 22 °C): 0.07148 | Fraction unfolded (M^pro; 25 mM, 22.5 °C): 0.01751 | Fraction unfolded (M^pro; 25 mM, 23 °C): -0.05389 | Fraction unfolded (M^pro; 25 mM, 23.5 °C): -0.01968 | Fraction unfolded (M^pro; 25 mM, 24 °C): 0.09885 | Fraction unfolded (M^pro; 25 mM, 24.5 °C): 0.01751 | Fraction unfolded (M^pro; 25 mM, 25 °C): 0.01414 | Fraction unfolded (M^pro; 25 mM, 25.5 °C): -0.01034 | Fraction unfolded (M^pro; 25 mM, 26 °C): 0.01683 | Fraction unfolded (M^pro; 25 mM, 26.5 °C): 0.04278 | Fraction unfolded (M^pro; 25 mM, 27 °C): 0.07148 | Fraction unfolded (M^pro; 25 mM, 27.5 °C): -0.01421 | Fraction unfolded (M^pro; 25 mM, 28 °C): -0.05389 | Fraction unfolded (M^pro; 25 mM, 28.5 °C): -0.01968 | Fraction unfolded (M^pro; 25 mM, 29 °C): 0.09885 | Fraction unfolded (M^pro; 25 mM, 29.5 °C): 0.01751 | Fraction unfolded (M^pro; 25 mM, 30 °C): -0.01678 | Fraction unfolded (M^pro; 25 mM, 30.5 °C): 0.01948 | Fraction unfolded (M^pro; 25 mM, 31 °C): 0.07312 | Fraction unfolded (M^pro; 25 mM, 31.5 °C): 0.01304 | Fraction unfolded (M^pro; 25 mM, 32 °C): 0.01813 | Fraction unfolded (M^pro; 25 mM, 66.5 °C): 1.064 | Fraction unfolded (M^pro; 25 mM, 67 °C): 1.093 | Fraction unfolded (M^pro; 25 mM, 67.5 °C): 1.004 | Fraction unfolded (M^pro; 25 mM, 68 °C): 1.064 | Fraction unfolded (M^pro; 25 mM, 68.5 °C): 0.9281 | Fraction unfolded (M^pro; 25 mM, 69 °C): 1.033 | Fraction unfolded (M^pro; 25 mM, 69.5 °C): 0.9909 | Fraction unfolded (M^pro; 25 mM, 70 °C): 0.9575 | Fraction unfolded (M^pro; 25 mM, 70.5 °C): 1.011 | Fraction unfolded (M^pro; 25 mM, 71 °C): 1.05 | Fraction unfolded (M^pro; 25 mM, 71.5 °C): 1.061 | Fraction unfolded (M^pro; 25 mM, 72 °C): 0.9314 | Fraction unfolded (M^pro; 25 mM, 72.5 °C): 1.024 | Fraction unfolded (M^pro; 25 mM, 73 °C): 1.027 | Fraction unfolded (M^pro; 25 mM, 73.5 °C): 1.08 | Fraction unfolded (M^pro; 25 mM, 74 °C): 1 | Fraction unfolded (M^pro; 25 mM, 74.5 °C): 0.9793 | Fraction unfolded (M^pro; 25 mM, 75 °C): 0.8934 | Fraction unfolded (M^pro; 25 mM, 75.5 °C): 0.9799 | Fraction unfolded (M^pro; 25 mM, 76 °C): 1.027 | Fraction unfolded (M^pro; 25 mM, 76.5 °C): 0.9678 | Fraction unfolded (M^pro; 25 mM, 77 °C): 0.9735 | Fraction unfolded (M^pro; 25 mM, 77.5 °C): 0.9321 | Fraction unfolded (M^pro; 25 mM, 78 °C): 1.0047 | Fraction unfolded (M^pro; 25 mM, 78.5 °C): 1.022 | Fraction unfolded (M^pro; 25 mM, 79 °C): 0.9456 | Fraction unfolded (M^pro; 25 mM, 79.5 °C): 1.012 | Fraction unfolded (M^pro; 25 mM, 80 °C): 0.9456 | Fraction unfolded (M^pro; 100 mM, 21.5 °C): -0.02084 | Fraction unfolded (M^pro; 100 mM, 22 °C): -0.00506 | Fraction unfolded (M^pro; 100 mM, 22.5 °C): 0.01094 | Fraction unfolded (M^pro; 100 mM, 23 °C): 0.02167 | Fraction unfolded (M^pro; 100 mM, 23.5 °C): -0.03337 | Fraction unfolded (M^pro; 100 mM, 24 °C): -0.04925 | Fraction unfolded (M^pro; 100 mM, 24.5 °C): -0.01302 | Fraction unfolded (M^pro; 100 mM, 25 °C): 0.0174 | Fraction unfolded (M^pro; 100 mM, 25.5 °C): 0.07455 | Fraction unfolded (M^pro; 100 mM, 26 °C): -0.07318 | Fraction unfolded (M^pro; 100 mM, 26.5 °C): 0.02179 | Fraction unfolded (M^pro; 100 mM, 27 °C): -0.00134 | Fraction unfolded (M^pro; 100 mM, 27.5 °C): 0.02966 | Fraction unfolded (M^pro; 100 mM, 28 °C): -0.07997 | Fraction unfolded (M^pro; 100 mM, 28.5 °C): -0.01931 | Fraction unfolded (M^pro; 100 mM, 29 °C): 0.05111 | Fraction unfolded (M^pro; 100 mM, 29.5 °C): 0.02685 | Fraction unfolded (M^pro; 100 mM, 30 °C): 0.06732 | Fraction unfolded (M^pro; 100 mM, 30.5 °C): -0.02735 | Fraction unfolded (M^pro; 100 mM, 31 °C): 0.01656 | Fraction unfolded (M^pro; 100 mM, 31.5 °C): -0.02084 | Fraction unfolded (M^pro; 100 mM, 32 °C): -0.00506 | Fraction unfolded (M^pro; 100 mM, 66.5 °C): 1.07 | Fraction unfolded (M^pro; 100 mM, 67 °C): 1.013 | Fraction unfolded (M^pro; 100 mM, 67.5 °C): 0.9992 | Fraction unfolded (M^pro; 100 mM, 68 °C): 1.02 | Fraction unfolded (M^pro; 100 mM, 68.5 °C): 1.071 | Fraction unfolded (M^pro; 100 mM, 69 °C): 0.9861 | Fraction unfolded (M^pro; 100 mM, 69.5 °C): 1.008 | Fraction unfolded (M^pro; 100 mM, 70 °C): 1.064 | Fraction unfolded (M^pro; 100 mM, 70.5 °C): 0.8899 | Fraction unfolded (M^pro; 100 mM, 71 °C): 1.057 | Fraction unfolded (M^pro; 100 mM, 71.5 °C): 1.048 | Fraction unfolded (M^pro; 100 mM, 72 °C): 1.1085 | Fraction unfolded (M^pro; 100 mM, 72.5 °C): 1.099 | Fraction unfolded (M^pro; 100 mM, 73 °C): 0.9672 | Fraction unfolded (M^pro; 100 mM, 73.5 °C): 1.047 | Fraction unfolded (M^pro; 100 mM, 74 °C): 0.9312 | Fraction unfolded (M^pro; 100 mM, 74.5 °C): 1.062 | Fraction unfolded (M^pro; 100 mM, 75 °C): 1.063 | Fraction unfolded (M^pro; 100 mM, 75.5 °C): 1.018 | Fraction unfolded (M^pro; 100 mM, 76 °C): 0.9202 | Fraction unfolded (M^pro; 100 mM, 76.5 °C): 1.013 | Fraction unfolded (M^pro; 100 mM, 77 °C): 0.9957 | Fraction unfolded (M^pro; 100 mM, 77.5 °C): 1.0714 | Fraction unfolded (M^pro; 100 mM, 78 °C): 0.8845 | Fraction unfolded (M^pro; 100 mM, 78.5 °C): 0.9237 | Fraction unfolded (M^pro; 100 mM, 79 °C): 1.0367 | Fraction unfolded (M^pro; 100 mM, 79.5 °C): 0.9498 | Fraction unfolded (M^pro; 100 mM, 80 °C): 0.9799
